The text below walks through data of the NIST ThermoML archive (doi:10.1021/je0503554).

“And” between values parts separate entries of the source, which are not always exact repeats. Equal entries are not always repeated. ± gives the expanded uncertainty stated by the source.

This data set can be described thus: activity coefficient (dimensionless); of the first substance listed, at infinite dilution; xn = mol fraction of the nth substance listed. To be noted: Liquid, Chromatography, x1 = 0.

For the compound `CCc1ccccc1` [ethylbenzene] + CCCCCC[n+]1ccn(C)c1.O=S(=O)([N-]S(=O)(=O)C(F)(F)F)C(F)(F)F, the activity coefficient (322.85 K) was found to be 1.55 ± 0.1, the activity coefficient (333.35 K) is 1.55 ± 0.1, the activity coefficient (343.85 K) amounted to 1.54 ± 0.1 and the activity coefficient (354.25 K) came out at 1.53 ± 0.1.

As for `CCCCCCCO` [heptan-1-ol] + CCCCCC[n+]1ccn(C)c1.O=S(=O)([N-]S(=O)(=O)C(F)(F)F)C(F)(F)F, the activity coefficient reads like this: (354.05 K) 4.61 ± 0.31; (364.63 K) 4.13 ± 0.28; (375.05 K) 3.73 ± 0.25; (385.6 K) 3.42 ± 0.23.

As for `CCCCCCC=O` [heptanal] + CCCCCC[n+]1ccn(C)c1.O=S(=O)([N-]S(=O)(=O)C(F)(F)F)C(F)(F)F, the activity coefficient is, setting by setting: (343.55 K) 1.11 ± 0.07; (354.05 K) 1.07 ± 0.068; (364.45 K) 1.02 ± 0.064; (374.95 K) 0.97 ± 0.061; (385.35 K) 0.92 ± 0.058; (395.95 K) 0.9 ± 0.057.

Turning to `CCCCCCC` [heptane] + CCCCCC[n+]1ccn(C)c1.O=S(=O)([N-]S(=O)(=O)C(F)(F)F)C(F)(F)F, the activity coefficient came to 11.2 ± 0.76 (300.95 K); 10.4 ± 0.71 (312.25 K); 9.69 ± 0.66 (322.85 K); 9.09 ± 0.62 (333.25 K); 8.65 ± 0.59 (343.75 K).

For `CCCCCCO` [hexan-1-ol] + CCCCCC[n+]1ccn(C)c1.O=S(=O)([N-]S(=O)(=O)C(F)(F)F)C(F)(F)F, the activity coefficient reads like this: (354.05 K) 2.18 ± 0.15; (364.55 K) 1.97 ± 0.13; (374.95 K) 1.82 ± 0.12; (385.45 K) 1.67 ± 0.11; (395.95 K) 1.56 ± 0.1.

Turning to `CCCCCC=O` [hexanal] + CCCCCC[n+]1ccn(C)c1.O=S(=O)([N-]S(=O)(=O)C(F)(F)F)C(F)(F)F, the activity coefficient is, setting by setting: (333.15 K) 1.2 ± 0.077; (343.55 K) 1.21 ± 0.078; (354.05 K) 1.23 ± 0.079; (364.45 K) 1.24 ± 0.08; (374.95 K) 1.26 ± 0.081.

Take `CCCCCC` [hexane] + CCCCCC[n+]1ccn(C)c1.O=S(=O)([N-]S(=O)(=O)C(F)(F)F)C(F)(F)F: the activity coefficient was 8.03 ± 0.55 (301.85 K); 7.65 ± 0.52 (312.25 K); 7.41 ± 0.51 (322.85 K); 6.94 ± 0.47 (333.25 K); 6.74 ± 0.46 (343.75 K).

As to `CO` [methanol] + CCCCCC[n+]1ccn(C)c1.O=S(=O)([N-]S(=O)(=O)C(F)(F)F)C(F)(F)F, the activity coefficient (301.95 K) was 1.46 ± 0.1; the activity coefficient (312.45 K) stood at 1.34 ± 0.09; the activity coefficient (323.05 K) came to 1.22 ± 0.08; the activity coefficient (333.45 K) came out at 1.1 ± 0.07; the activity coefficient (343.95 K) is 0.99 ± 0.06; the activity coefficient (354.45 K) was found to be 0.93 ± 0.06.

As for `CCCC(=O)OC` [methyl butanoate] + CCCCCC[n+]1ccn(C)c1.O=S(=O)([N-]S(=O)(=O)C(F)(F)F)C(F)(F)F, the activity coefficient is, setting by setting: (322.75 K) 0.868 ± 0.055; (333.25 K) 0.874 ± 0.056; (343.65 K) 0.877 ± 0.056; (354.15 K) 0.884 ± 0.056.

For `CCCCCCC(=O)OC` [methyl heptanoate] + CCCCCC[n+]1ccn(C)c1.O=S(=O)([N-]S(=O)(=O)C(F)(F)F)C(F)(F)F, the activity coefficient is, setting by setting: (354.15 K) 1.6 ± 0.11; (364.65 K) 1.52 ± 0.1; (375.15 K) 1.44 ± 0.09; (385.65 K) 1.38 ± 0.09.

With `CCCCCC(=O)OC` [methyl hexanoate] + CCCCCC[n+]1ccn(C)c1.O=S(=O)([N-]S(=O)(=O)C(F)(F)F)C(F)(F)F, the activity coefficient runs as follows: (343.65 K) 1.39 ± 0.09; (354.15 K) 1.35 ± 0.09; (364.65 K) 1.29 ± 0.08; (375.15 K) 1.25 ± 0.08; (385.65 K) 1.2 ± 0.08.

Turning to `CCCCC(=O)OC` [methyl pentanoate] + CCCCCC[n+]1ccn(C)c1.O=S(=O)([N-]S(=O)(=O)C(F)(F)F)C(F)(F)F, the activity coefficient amounted to 1.04 ± 0.07 (322.75 K), 1.03 ± 0.06 (333.25 K), 1.01 ± 0.06 (343.65 K) and 0.99 ± 0.06 (354.15 K).

For the compound `CCC(=O)OC` [methyl propanoate] + CCCCCC[n+]1ccn(C)c1.O=S(=O)([N-]S(=O)(=O)C(F)(F)F)C(F)(F)F, the activity coefficient is 0.681 ± 0.046 (322.75 K), 0.683 ± 0.046 (333.25 K), 0.685 ± 0.046 (343.65 K) and 0.688 ± 0.046 (354.15 K).

`CCCCCCCCC` [nonane] + CCCCCC[n+]1ccn(C)c1.O=S(=O)([N-]S(=O)(=O)C(F)(F)F)C(F)(F)F: the activity coefficient was 21.4 ± 1.5 (307.05 K); 20.5 and 20.3 (312.35 K); 18.9 and 18.6 (322.85 K).

Take `C=CCCCCCC` [oct-1-ene] + CCCCCC[n+]1ccn(C)c1.O=S(=O)([N-]S(=O)(=O)C(F)(F)F)C(F)(F)F: the activity coefficient by setting is: (301.95 K) 8.83 ± 0.6; (312.45 K) 8.43 ± 0.58; (322.95 K) 8.08 ± 0.55; (333.45 K) 7.66 ± 0.52; (343.95 K) 7.37 ± 0.5; (354.35 K) 7.16 ± 0.49.

For `CCCCCCCC=O` [octanal] + CCCCCC[n+]1ccn(C)c1.O=S(=O)([N-]S(=O)(=O)C(F)(F)F)C(F)(F)F, the activity coefficient is, setting by setting: (354.05 K) 1.9 ± 0.13; (364.45 K) 1.92 ± 0.13; (374.95 K) 1.94 ± 0.13; (385.45 K) 1.96 ± 0.13; (395.95 K) 1.97 ± 0.13.

For the compound `CCCCCCCC` [octane] + CCCCCC[n+]1ccn(C)c1.O=S(=O)([N-]S(=O)(=O)C(F)(F)F)C(F)(F)F, the activity coefficient runs as follows: (300.95 K) 15.2 ± 1; (312.25 K) 14.3 ± 0.98; (322.85 K) 13.2 ± 0.9; (333.25 K) 12.2 ± 0.84; (343.75 K) 11.5 ± 0.78.

Turning to `CCCCCO` [pentan-1-ol] + CCCCCC[n+]1ccn(C)c1.O=S(=O)([N-]S(=O)(=O)C(F)(F)F)C(F)(F)F, the activity coefficient turned out to be 2.18 ± 0.15 (333.25 K); 2 ± 0.14 (343.75 K); 1.8 ± 0.12 (354.05 K); 1.63 ± 0.11 (364.55 K); 1.51 ± 0.1 (374.95 K).

With `CCCCC=O` [pentanal] + CCCCCC[n+]1ccn(C)c1.O=S(=O)([N-]S(=O)(=O)C(F)(F)F)C(F)(F)F, the activity coefficient runs as follows: (301.75 K) 1.11 ± 0.07; (312.25 K) 1.1 ± 0.07; (322.85 K) 1.08 ± 0.068; (333.35 K) 1.06 ± 0.067; (343.55 K) 1.05 ± 0.066; (354.05 K) 1.03 ± 0.065. Moreover, the activity coefficient came out at 1.01 ± 0.063 (364.45 K) and 0.99 ± 0.062 (374.95 K).

Consider `CCCCC` [pentane] + CCCCCC[n+]1ccn(C)c1.O=S(=O)([N-]S(=O)(=O)C(F)(F)F)C(F)(F)F, for which the activity coefficient came out at 6.26 ± 0.43 (301.95 K); 5.44 ± 0.37 (312.45 K); 5.33 ± 0.36 (323.05 K); 4.72 ± 0.32 (333.45 K); 4.09 ± 0.28 (343.95 K).

Regarding `CCCCCc1ccccc1` [pentylbenzene] + CCCCCC[n+]1ccn(C)c1.O=S(=O)([N-]S(=O)(=O)C(F)(F)F)C(F)(F)F, the activity coefficient reads like this: (364.65 K) 3.38 ± 0.23; (375.15 K) 3.37 ± 0.23; (385.65 K) 3.37 ± 0.23.

Consider `CCCO` [propan-1-ol] + CCCCCC[n+]1ccn(C)c1.O=S(=O)([N-]S(=O)(=O)C(F)(F)F)C(F)(F)F, for which the activity coefficient runs as follows: (312.45 K) 2.15 ± 0.15; (323.05 K) 1.86 ± 0.13; (333.45 K) 1.63 ± 0.11; (343.95 K) 1.43 ± 0.09; (354.45 K) 1.27 ± 0.08.

With `CC(C)O` [propan-2-ol] + CCCCCC[n+]1ccn(C)c1.O=S(=O)([N-]S(=O)(=O)C(F)(F)F)C(F)(F)F, the activity coefficient reads like this: (301.65 K) 1.93 ± 0.13; (312.25 K) 1.68 ± 0.11; (322.75 K) 1.49 ± 0.1; (333.25 K) 1.33 ± 0.09; (343.75 K) 1.21 ± 0.08; (354.05 K) 1.09 ± 0.07.

On to `CCC=O` [propanal] + CCCCCC[n+]1ccn(C)c1.O=S(=O)([N-]S(=O)(=O)C(F)(F)F)C(F)(F)F, for which the activity coefficient (301.75 K) stood at 0.453 ± 0.036, the activity coefficient (312.25 K) worked out at 0.45 ± 0.036, the activity coefficient (322.85 K) is 0.444 ± 0.036 and the activity coefficient (333.35 K) is 0.439 ± 0.035.

Turning to `CCCc1ccccc1` [propylbenzene] + CCCCCC[n+]1ccn(C)c1.O=S(=O)([N-]S(=O)(=O)C(F)(F)F)C(F)(F)F, the activity coefficient is 2.1 ± 0.14 (333.35 K); 2.08 ± 0.14 (343.85 K); 2.03 ± 0.14 (354.25 K); 2.02 ± 0.14 (364.65 K); 2 ± 0.14 (375.15 K); 1.96 ± 0.13 (385.65 K).
